“And” between values parts separate entries of the source, which are not always exact repeats. Equal entries are not always repeated.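 Dose response: 5 concentrations. Exposure: 48 h. Format: 96-well plates. Endpoint: linear interpolation; highest concentration if not reached. Here, GI50 denotes the concentration required for 50% inhibition of growth. The concentration for full growth arrest is given as TGI.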

Among the test systems are HCT-15 colon; OVCAR-8 ovarian; ACHN renal; MOLT-4 leukemia; MALME-3M melanoma; SK-OV-3 ovarian; HCC-2998 colon; SNB-19 CNS; 786-0 renal; DU-145 prostate.
Test in all cases: DTP human tumour cell line panel, 48 h

As to `CC1CCN(CCCCCOc2ccc3oc4cc(Cl)ccc4c(=O)c3c2)CC1`, the GI50 in the assay on HCT-15 colon is 1.32 µM; in the assay with OVCAR-8 ovarian it was 7.95 µM; in the assay with ACHN renal, 8.01 µM; in the assay on MOLT-4 leukemia, 2.87 µM; in the assay with MALME-3M melanoma it was 8.41 µM; in the assay on SK-OV-3 ovarian, 8.45 µM. The GI50 in the assay with HCC-2998 colon is 6.25 µM; in the assay on SNB-19 CNS it was 8.03 µM; with 786-0 renal, 6.29 µM; with DU-145 prostate, 7.14 µM. Besides, the TGI in the assay on HCT-15 colon was 4.1 µM; with OVCAR-8 ovarian, 16 µM; in the assay on ACHN renal, 14.7 µM; with MOLT-4 leukemia, 10.3 µM; in the assay with MALME-3M melanoma, 15.3 µM; with SK-OV-3 ovarian, 15.8 µM. Also, the concentration for total growth inhibition (TGI) in the assay on HCC-2998 colon is 13.1 µM; with SNB-19 CNS, 15.2 µM; in the assay with 786-0 renal, 12.7 µM; in the assay with DU-145 prostate, 13.9 µM.

As for `CN1CCN(c2ccc3nc(-c4c(N)c5c(F)cccc5[nH]c4=O)[nH]c3c2)CC1`, the GI50 with HCT-15 colon was 0.495 µM and 0.419 µM and 0.485 µM; with OVCAR-8 ovarian, 1.26 µM and 0.874 µM and 1.67 µM; in the assay on ACHN renal it was 0.335 µM and 0.342 µM and 0.371 µM; with MOLT-4 leukemia it was 0.392 µM and 0.322 µM and 0.42 µM; in the assay on MALME-3M melanoma, 0.901 µM and 0.498 µM and 0.547 µM; in the assay on SK-OV-3 ovarian, 0.379 µM and 0.487 µM and 0.515 µM. Also, the GI50 with HCC-2998 colon is 1.33 µM and 0.867 µM and 1.36 µM; with SNB-19 CNS, 1.9 µM and > 1.97 µM and 2.56 µM; in the assay on 786-0 renal, 1.2 µM and 0.695 µM and 0.946 µM; in the assay with DU-145 prostate, 0.991 µM and 0.547 µM and 1.06 µM. Further, the TGI with HCT-15 colon is 5.43 µM and > 7.05 µM and 7.76 µM; with OVCAR-8 ovarian it was 3.21 µM and > 5.17 µM and 12.5 µM; in the assay with ACHN renal, 1.83 µM and > 6.36 µM and 4.74 µM; in the assay on MOLT-4 leukemia, 3.6 µM and 1.52 µM and 4.54 µM; in the assay on MALME-3M melanoma, 2.46 µM and 1.75 µM and 1.97 µM; in the assay on HCC-2998 colon, 5.24 µM and > 4.09 µM and 6.58 µM. Also, the total growth inhibition concentration (TGI) in the assay with SNB-19 CNS was 8.89 µM and > 10 µM and 12.6 µM; with 786-0 renal, 3.93 µM and > 3.84 µM and 3.07 µM; in the assay on DU-145 prostate, 2.97 µM and > 6.53 µM and 9.59 µM.

Turning to `C=CC(C=O)C1(O)CCOC(=O)/C1=C\N` (centres undefined), the GI50 with HCT-15 colon, in the assay on OVCAR-8 ovarian, with ACHN renal, in the assay with MOLT-4 leukemia, with MALME-3M melanoma and with SK-OV-3 ovarian was more than 100 µM each time. The GI50 with HCC-2998 colon, with SNB-19 CNS, in the assay on 786-0 renal and in the assay with DU-145 prostate was more than 100 µM each time. Also, the total growth inhibition concentration (TGI) in the assay on HCT-15 colon, in the assay with OVCAR-8 ovarian, with ACHN renal, with MOLT-4 leukemia, in the assay with MALME-3M melanoma and in the assay on SK-OV-3 ovarian was more than 100 µM throughout. Further, the concentration for total growth inhibition (TGI) in the assay with HCC-2998 colon, in the assay on SNB-19 CNS, in the assay with 786-0 renal and in the assay with DU-145 prostate was more than 100 µM each time.

As for `COc1ccc2nc3cc(Cl)ccc3c(N3CCN(c4ccnc(N5CCOCC5)n4)CC3)c2c1`, the GI50 in the assay with HCT-15 colon was 3.28 µM; with OVCAR-8 ovarian, 43.5 µM; with ACHN renal, 9.64 µM; in the assay with MOLT-4 leukemia, 6.24 µM; with MALME-3M melanoma, more than 100 µM; in the assay on SK-OV-3 ovarian, more than 100 µM. For the same compound, the GI50 was 3.86 µM in the assay with HCC-2998 colon, more than 100 µM in the assay with SNB-19 CNS, 4.23 µM in the assay with 786-0 renal and 17.9 µM in the assay on DU-145 prostate. The concentration for total growth inhibition (TGI) with HCT-15 colon, in the assay on OVCAR-8 ovarian, in the assay on ACHN renal, in the assay on MOLT-4 leukemia, in the assay on MALME-3M melanoma and in the assay with SK-OV-3 ovarian was more than 100 µM throughout. Moreover, the concentration for total growth inhibition (TGI) was 42.4 µM with HCC-2998 colon, more than 100 µM in the assay on SNB-19 CNS, 34.3 µM in the assay with 786-0 renal and more than 100 µM in the assay on DU-145 prostate.

Regarding `Cc1noc(C)c1-c1cc(O)cc(C(O)c2ccccc2)c1` (centres undefined), the GI50 in the assay on HCT-15 colon was 3.52 µM; in the assay on OVCAR-8 ovarian, 8.33 µM; with ACHN renal, 4.76 µM; in the assay with MOLT-4 leukemia it was 17.9 µM; in the assay with MALME-3M melanoma, 28.9 µM; in the assay with SK-OV-3 ovarian, 7.01 µM. The GI50 in the assay with HCC-2998 colon is 8.55 µM; in the assay with SNB-19 CNS, 5.69 µM; in the assay with 786-0 renal it was 27.1 µM; in the assay on DU-145 prostate, 69.5 µM. Further, the total growth inhibition concentration (TGI) with HCT-15 colon is more than 100 µM; in the assay with OVCAR-8 ovarian, more than 100 µM; in the assay on ACHN renal, more than 100 µM; with MOLT-4 leukemia it was 80.7 µM; in the assay with MALME-3M melanoma, more than 100 µM; with SK-OV-3 ovarian it was more than 100 µM. In addition, the TGI with HCC-2998 colon, with SNB-19 CNS, with 786-0 renal and with DU-145 prostate was more than 100 µM each time.

For the compound `O=c1cc(N2CCNCC2)oc2c(-c3ccccc3)cccc12`, the GI50 with HCT-15 colon was 34.7 µM; in the assay on OVCAR-8 ovarian, 74.2 µM; in the assay with ACHN renal, 34.1 µM; in the assay on MOLT-4 leukemia, 19.4 µM; in the assay on MALME-3M melanoma, 23.6 µM; in the assay on SK-OV-3 ovarian it was 13.8 µM. For the same compound, the GI50 with HCC-2998 colon is 18.1 µM; with SNB-19 CNS, 34.5 µM; with 786-0 renal, 33.7 µM; with DU-145 prostate it was 59 µM. In addition, the TGI was more than 100 µM in the assay with HCT-15 colon; more than 100 µM with OVCAR-8 ovarian; more than 100 µM in the assay with ACHN renal; 56.8 µM in the assay on MOLT-4 leukemia; 56.8 µM with MALME-3M melanoma; 42.2 µM with SK-OV-3 ovarian. The TGI in the assay on HCC-2998 colon was 39.8 µM; with SNB-19 CNS, more than 100 µM; in the assay on 786-0 renal it was more than 100 µM; with DU-145 prostate, more than 100 µM.

With `C/C(=C\C1=C(Cl)C(=O)c2ccccc2C1=O)C(=O)O`, the GI50 in the assay on HCT-15 colon is 18.2 µM; with OVCAR-8 ovarian it was 22.6 µM; in the assay with ACHN renal, 18.5 µM; with MOLT-4 leukemia, 28.2 µM; with MALME-3M melanoma it was 24 µM; in the assay with SK-OV-3 ovarian, 19 µM. Also, the GI50 in the assay on HCC-2998 colon is 18.9 µM; in the assay on SNB-19 CNS, 17.7 µM; in the assay with 786-0 renal, 17.6 µM; in the assay with DU-145 prostate, 17.6 µM. Also, the TGI is 36.5 µM with HCT-15 colon; 45.6 µM in the assay on OVCAR-8 ovarian; 32.7 µM in the assay on ACHN renal; more than 100 µM with MOLT-4 leukemia; 40.2 µM in the assay with MALME-3M melanoma; 33.1 µM in the assay with SK-OV-3 ovarian. Moreover, the TGI came out at 33.3 µM with HCC-2998 colon, 31.7 µM in the assay on SNB-19 CNS, 32.3 µM in the assay with 786-0 renal and 34.6 µM in the assay with DU-145 prostate.

In general, GI50 refers to the concentration at which growth is held to half of that of the control. Broadly, the TGI is the concentration giving total growth inhibition. The low end stands for greater sensitivity of the cells, the high end for lower sensitivity of the cells.
